Experimental data taken from US20240052079A1 (OREGON HEALTH & SCIENCE UNIVERSITY, priority 2021, published 2024).
Read-outs that look alike come from different tables or passages of the source.

Key:
[1] = test system: human dental pulp stem cells (hDPSC); test: Cytotoxicity (MTT) assay, hDPSC; settings: for biocompatibility compared with methacrylates: DPSC; for IC50: read-out: IC50 DPSC
Description: (§1) For the cytotoxicity assay, two cell types were tested—odontoblast-like cell line (OD-21) and human dental pulp stem cells (hDPSC) (cat #PT5025, Lonza). […] Cells were kept in an incubator at 37° C., under humidified atmosphere with 5% CO 2 for 2-3 days until confluence was reached. Next, cells were washed with Dulbecco's phosphate buffered saline solution (PBS—Thermo Fisher Scientific) and detached from the culture flasks using 0.05% trypsin/0.02% EDTA (Sigma). Cells were counted using a hemocytometer, then 10,000 cells per well were seeded in 96-well plates for 24 hours (n=6).
(§2) From these stocks, six different concentrated solutions (0.05, 0.1, 0.5, 1, 5 and 10 mM) were prepared in cell culture medium (DMEM for OD-21 and α-MEM for DPSC) and 100 μl per well was used to incubate the cells.
(§3) Next, 200 μl of DMSO was added to each well, plates were gently agitated and the optical density was read at 570 nm and 630 nm in a spectrophotometer (Epoch Microplate Spectrophotometer, BioTek Instruments Inc, Winooski, VT, USA). OD-21 and DPSCs cultured in the medium free from the monomers were used as negative controls. Additionally, since monomer fluorescence could affect the readings, 10 mM samples of each tested monomer were incubated without cells and their absorbance measured to provide a second control (i.e. medium control). The percentage of cell viability was calculated according to the equations:
(§4) ODcells=(OD570 exper−OD630 exper)−(OD570 med contr−OD630 med contr) Equation (3)
(§5) where: ODcell is the absorbance of the remaining cells after exposure; ODexper is the absorbance of the experimental specimens at 570 nm and 630 nm; ODmed contr is the absorbance of the 10 mM solution of each monomer without cells at 570 nm and 630 nm.
(§6) where: CV (%) is percentage of cell viability in relation to the negative control (cells+medium free from the monomers); ODcells neg contr is the cells absorbance of the negative control; ODcells exper is the cells absorbance of the experimental samples.
(§7) The half maximal inhibitory concentration (IC50) of each tested monomer was determined based on the plots of cell inhibition (%) as a function of the monomers concentration (mM) using GraphPad software.

[2] = Cytotoxicity (MTT) assay, OD-21 cells; settings: mouse
Description: as §1, §2, §3, §4, §5, §6, §7

[3] = test system: odontoblast-like cell line (OD-21); test: Cytotoxicity (MTT) assay, OD-21 cells; settings: for IC50: read-out: IC50 OD-21; for cell viability, comparison between monomers: OD-21, at 10 and 5 mM
Description: as §1, §2, §3, §4, §5, §6, §7

[4] = Hydrolytic degradation kinetics of neat monomers by 1H NMR; assay type: physicochemical; settings: for Percent remaining monomer: 50 mM monomer, aqueous pH=1, 37° C.; for final degradation percentage: over one month, acidic aqueous conditions (pH=1); for half-life at 50 mM: fit to exponential decay curves, pH=1, read-out: monomer half-life (converted)
Description: Neat monomers were subject to the hydrolytic degradation kinetics assay. An aqueous solution (pH=1) was prepared using HPLC grade water and adjusted using 1.0 M HCI. A 50 mM solution of each monomer (n=3) was prepared using 1.0 mL of the acidic aqueous solution. A capillary tube was filled with a 50 mM solution of tetramethylammonium bromide dissolved in D2O and flame sealed. The capillary tube was placed at the bottom on the NMR tube to allow the “locking on” of the instrument and to act as an internal standard. ^1H NMR spectra were obtained using a water suppression by excitation sculpting experiment. After the initial reading, the NMR tubes were flame sealed and incubated at 37° C. During the first week and after 12, 19, and 30 days, the samples were removed from incubation to obtain water suppressed ^1H NMR spectra. To determine the amount of monomer degradation, spectra were first aligned using the ITSD singlet peak and then an integration region unique to a monomer vinyl proton and an integration region unique to a degradation product (methacrylic or acrylic acid) vinyl proton were used to calculate the ratio of monomer to degradation product. […] Additional integration regions on either side of the vinyl region were used to determine the average amount of noise in each spectra. Degradation product values with a signal to noise ratio of less than 10 were considered to show no measurable amount of degradation.

[5] = Partition coefficient (logP); assay type: physicochemical; settings: values not given; source of logP not stated
Text: When stored dry, all materials had flexural strengths and elastic moduli that were statistically similar to the control. […] […]. The logP determines the likelihood of a compound to partition into water or octanol, with the most hydrophilic compounds presenting lower logP values. Amides are in general more hydrophilic than methacrylates because of the […] of the nitrogen atom in the amide compared to the oxygen in the methacrylate. In addition, the presence of a lone pair of electrons on the nitrogen leads to stabilization of the carbon-nitrogen bond by resonance with the carbonyl. The oxygen in the amide, in turn, assumes a partial negative charge (δ−), making it more prone to function as a hydrogen-bond acceptor. Conversely, the hydrogen of the N-H dipole is partially positively charged (δ+), which renders it a hydrogen-bond donor.

[6] = neat monomer, 24 hours exposure, MTT

Compound	IC50 ([1]; Homo sapiens, 24 h) [mM]	IC50 ([3]; Mus musculus, 24 h) [mM]	cell viability, comparison between monomers [3]	Percent remaining monomer ([4]; day 0) [%]	Percent remaining monomer ([4]; day 1) [%]	Percent remaining monomer ([4]; day 2) [%]	Percent remaining monomer ([4]; day 3) [%]	Percent remaining monomer ([4]; day 4) [%]	Percent remaining monomer ([4]; day 5) [%]	Percent remaining monomer ([4]; day 6) [%]	Percent remaining monomer ([4]; day 7) [%]	Percent remaining monomer ([4]; day 12) [%]	Percent remaining monomer ([4]; day 19) [%]	Percent remaining monomer ([4]; day 30) [%]	final degradation percentage [4] [%]	half-life at 50 mM [4] [days]	IC50 [1, 6] [mM]	IC50 [3, 6] [mM]	other results
C=CC(=O)N(C)CCCN(C)CCCN(C)C(=O)C=C	0.54	4.75	the lowest cell viability	100.0 ± 0.0	99.8 ± 0.01	100.0 ± 0.0	100.0 ± 0.0	100.0 ± 0.0	99.7 ± 0.01	100.0 ± 0.0	100.0 ± 0.0	100.0 ± 0.0	99.7 ± 0.3	98.7 ± 1.3	1.27	–	–	–	biocompatibility compared with methacrylates ([1]; 5 mM): less biocompatible than the tested methacrylates; viability at 24 h, 5 mM [2]: 24%; viability at 24 h, 10 mM [2]: 12%
C=CC(=O)N(C)CCN(CCN(C)C(=O)C=C)CCN(C)C(=O)C=C	1.07	8.02	–	100.0 ± 0.0	99.8 ± 0.2	99.8 ± 0.2	99.3 ± 0.7	99.2 ± 0.9	99.1 ± 0.7	99.0 ± 1.0	98.7 ± 1.3	–	96.7 ± 1.8	93.7 ± 0.7	6.29	350	–	–	biocompatibility compared with methacrylates ([1]; 0.5 mM): less biocompatible than the tested methacrylates; logP, ranking among tested monomers [5]: lower logP
C=CC(=O)NN1CCCN(NC(=O)C=C)CC1 [BAADA, N,N′-bis(acrylamido) 1,4-diazepane]	3.65	9.98	–	100.0 ± 0.0	100.0 ± 0.0	100.0 ± 0.0	100.0 ± 0.0	99.8 ± 0.2	–	100.0 ± 0.0	–	99.6 ± 0.4	92.3 ± 0.7	98.9 ± 1.2	1.13	–	–	–	–
C=C(C)C(=O)OCCO [HEMA, 2-hydroxyethyl methacrylate, reference compound]	6.87	15.4	the highest	99.2 ± 0.6	93.1 ± 0.04	87.6 ± 0.02	81.3 ± 0.02	76.5 ± 0.01	71.3 ± 0.02	66.1 ± 0.02	61.9 ± 0.01	43.1 ± 0.02	25.2 ± 0.02	10.6 ± 0.1	89.38	9.5	–	–	–
N,N-Diethyl-1,3-bis(acrylamido)propane [DEBAAP, reference compound]	–	–	–	–	–	–	–	–	–	–	–	–	–	–	–	–	8.43	7.11	–
urethane dimethacrylate [UDMA, reference compound]	–	–	–	–	–	–	–	–	–	–	–	–	–	–	–	–	10.3	7.94	–
